{
  "source": "patent US9056833B2",
  "about": "“Crystalline phases of 2′-{[2-(4-methoxy-phenyl)-acetylamino]-methyl}-biphenyl-2-carboxylic acid (2-pyridin-3-yl-ethyl)-amide” (SANOFI-AVENTIS DEUTSCHLAND GMBH, priority 2009, dated 2015)",
  "assay_type_in_all_cases": "physicochemical",
  "key": {"[1]": {"experiment": "Dynamic vapor sorption (DVS), moisture sorption/desorption isotherms", "details": "25° C.", "procedure": "Moisture sorption/desorption isotherms were recorded on a DVS-1from Surface Measurement Systems. […] The data were evaluated with the software DVSWin V. 2.15With samples of phase 1, 2, 3and 4of compound I the following water uptake (in mass percent) as a function of the relative humidity was determined."}, "[2]": {"experiment": "Thermodynamic stability of the polymorphs as a function of temperature"}, "[3]": {"experiment": "Stability of chloroform solvate outside the mother liquor"}, "[4]": {"experiment": "Temperature-resolved X-ray powder diffraction, DSC and TGA of toluene solvate", "details": "on loss of solvent", "procedure": "All X-ray powder diffraction was performed with Stoe Stadi-P transmission diffractometers using CuKα1radiation. For room temperature powder diffraction, linear position sensitive detectors were used, while for temperature-resolved XRPD image plate position sensitive detectors (IP-PSDs) were used. Unless stated otherwise, X-ray powder diffraction was performed at room temperature. Dry samples were investigated in a flat preparation whereas suspensions were investigated in quartz glass capillaries. […] The 2θ (2theta) angles in ° (degree) and the relative intensities of characteristic reflections are specified above, wherein the relative intensity of a reflection is designated as “strong” if it is more than 75% of the intensity of the most intense reflection or it is the most intense reflection itself, and as “medium” if it is between 20% and 75% of the intensity of the most intense reflection.\nAll DSC measurements were performed with a Mettler DSC822e (module DSC822e/700/109/414935/0025). If not indicated differently, 40μl Al crucibles with sealed lid and hole were used. All measurements were carried out in a nitrogen gas flow of 50mL/minute. The heating rate was 10° C./minute unless indicated otherwise. Temperature and heat flow were calibrated via the melting peak of an indium reference. The measured data were evaluated with the software STARe V6.1."}, "[5]": {"experiment": "Solubility compared to other polymorphs"}, "[6]": {"experiment": "Maturation experiments (slurry conversion), relative stability of the polymorphs", "details": "investigated temperature range 0° C. to 80° C.", "procedure": "By maturation experiments (slurry conversion) in the temperature region from 0° C. to 80° C. the relative stability of the polymorphs of compound I was investigated.\nMaturation experiments (a) to (d) were performed under the specified conditions, starting from a 1:1mixture of polymorphs 1and 4. • (a) The phase mixture was suspended in ethanol. After stirring the suspension for two days at 60° C., the solid was quickly isolated by vacuum filtration. • (b) The phase mixture was suspended in butyl acetate. After stirring the suspension for two days at 60° C., the solid was quickly isolated by vacuum filtration. • (c) The phase mixture was suspended in 1-pentanol. After stirring the suspension for four hours at 80° C., the solid was quickly isolated by vacuum filtration. • (d) The phase mixture was suspended in 1-octanol. After stirring the suspension for four hours at 80° C., the solid was quickly isolated by vacuum filtration.\nMaturation experiments (e) to (p) were performed by stirring the suspension under the specified conditions and isolating the solid by vacuum filtration, starting from polymorph 4. • (e) Maturation of 0.208g of compound I in 1.3ml of water/methanol (1:1) was performed at room temperature for four weeks. […]"}},
  "data": [
    {"smiles": "COc1ccc(CC(=O)NCc2ccccc2-c2ccccc2C(=O)NCCc2cccnc2)cc1", "note": "[Polymorph 3, 2′-{[2-(4-methoxy-phenyl)-acetylamino]-methyl}-biphenyl-2-carboxylic acid (2-pyridin-3-yl-ethyl)-amide]", "values": [
      {"measurement": "water uptake (in mass percent)", "setting": "[1]; relative humidity 20%, listed as Phase 3", "value": 0.02, "unit": "%"},
      {"measurement": "water uptake (in mass percent)", "setting": "[1]; relative humidity 40%, listed as Phase 3", "value": 0.03, "unit": "%"},
      {"measurement": "water uptake (in mass percent)", "setting": "[1]; relative humidity 60%, listed as Phase 3", "value": 0.06, "unit": "%"},
      {"measurement": "water uptake (in mass percent)", "setting": "[1]; relative humidity 80%, listed as Phase 3", "value": 0.30, "unit": "%"},
      {"measurement": "thermodynamic stability (in words)", "setting": "[2]", "value": "only metastable below 90 °C"}
    ]},
    {"smiles": "COc1ccc(CC(=O)NCc2ccccc2-c2ccccc2C(=O)NCCc2cccnc2)cc1", "note": "[Polymorph 4, 2′-{[2-(4-methoxy-phenyl)-acetylamino]-methyl}-biphenyl-2-carboxylic acid (2-pyridin-3-yl-ethyl)-amide]", "values": [
      {"measurement": "water uptake (in mass percent)", "setting": "[1]; relative humidity 20%, listed as Phase 4", "value": 0.05, "unit": "%"},
      {"measurement": "water uptake (in mass percent)", "setting": "[1]; relative humidity 40%, listed as Phase 4", "value": 0.02, "unit": "%"},
      {"measurement": "water uptake (in mass percent)", "setting": "[1]; relative humidity 60%, listed as Phase 4", "value": 0.15, "unit": "%"},
      {"measurement": "water uptake (in mass percent)", "setting": "[1]; relative humidity 80%, listed as Phase 4", "value": 1.80, "unit": "%"},
      {"measurement": "temperature range in which the polymorph is thermodynamically stable", "setting": "[2]", "value": "around 90 °C"}
    ]},
    {"smiles": "COc1ccc(CC(=O)NCc2ccccc2-c2ccccc2C(=O)NCCc2cccnc2)cc1", "note": "[chloroform solvate, 2′-{[2-(4-methoxy-phenyl)-acetylamino]-methyl}-biphenyl-2-carboxylic acid (2-pyridin-3-yl-ethyl)-amide]", "values": [
      {"measurement": "stability outside the mother liquor", "setting": "[3]", "value": "only moderately stable"},
      {"measurement": "form obtained on transformation", "setting": "[3]; outside the mother liquor", "value": "starts to transform to polymorph 2"}
    ]},
    {"smiles": "COc1ccc(CC(=O)NCc2ccccc2-c2ccccc2C(=O)NCCc2cccnc2)cc1", "note": "[toluene solvate, 2′-{[2-(4-methoxy-phenyl)-acetylamino]-methyl}-biphenyl-2-carboxylic acid (2-pyridin-3-yl-ethyl)-amide]", "values": [
      {"measurement": "form obtained on transformation", "setting": "[4]", "value": "transforms to polymorph 4"}
    ]},
    {"smiles": "COc1ccc(CC(=O)NCc2ccccc2-c2ccccc2C(=O)NCCc2cccnc2)cc1", "note": "[Polymorph 2, 2′-{[2-(4-methoxy-phenyl)-acetylamino]-methyl}-biphenyl-2-carboxylic acid (2-pyridin-3-yl-ethyl)-amide]", "values": [
      {"measurement": "water uptake (in mass percent)", "setting": "[1]; relative humidity 20%, listed as Phase 2", "value": 0.04, "unit": "%"},
      {"measurement": "water uptake (in mass percent)", "setting": "[1]; relative humidity 40%, listed as Phase 2", "value": 0.05, "unit": "%"},
      {"measurement": "water uptake (in mass percent)", "setting": "[1]; relative humidity 60%, listed as Phase 2", "value": 0.09, "unit": "%"},
      {"measurement": "water uptake (in mass percent)", "setting": "[1]; relative humidity 80%, listed as Phase 2", "value": 1.79, "unit": "%"},
      {"measurement": "thermodynamic stability (in words)", "setting": "[2]", "value": "metastable at any temperature"},
      {"measurement": "solubility compared to other polymorphs", "setting": "[5]", "value": "higher solubility"}
    ]},
    {"smiles": "COc1ccc(CC(=O)NCc2ccccc2-c2ccccc2C(=O)NCCc2cccnc2)cc1", "note": "[Polymorph 1, 2′-{[2-(4-methoxy-phenyl)-acetylamino]-methyl}-biphenyl-2-carboxylic acid (2-pyridin-3-yl-ethyl)-amide]", "values": [
      {"measurement": "water uptake (in mass percent)", "setting": "[1]; relative humidity 20%, listed as Phase 1", "value": 0.00, "unit": "%"},
      {"measurement": "water uptake (in mass percent)", "setting": "[1]; relative humidity 40%, listed as Phase 1", "value": 0.01, "unit": "%"},
      {"measurement": "water uptake (in mass percent)", "setting": "[1]; relative humidity 60%, listed as Phase 1", "value": 0.01, "unit": "%"},
      {"measurement": "water uptake (in mass percent)", "setting": "[1]; relative humidity 80%, listed as Phase 1", "value": 1.36, "unit": "%"},
      {"measurement": "relative thermodynamic stability among the known polymorphs", "setting": "[6]", "value": "thermodynamically most stable"},
      {"measurement": "temperature range in which the polymorph is thermodynamically stable", "setting": "[2]", "value": "below 90 °C"}
    ]}
  ]
}
